{"source": "patent US20220227815A1", "about": "“COMPOSITIONS AND METHODS USEFUL IN TREATING BRAIN DISEASES” (University of Kansas, priority 2019, published 2022)", "key": {"[1]": {"test_system": "blood-brain barrier (BBB)", "experiment": "In vivo brain delivery of IRdye800CW-fibronectin (220 kDa)", "parameters": "species or system C57BL/6 mice", "procedure": "(§1) The BBB modulatory activities of ADTC5 and HAV6 to enhance brain delivery of IRdyeR800CW-labeled lysozyme, albumin, IgG mAb, and fibronectin were compared in C57BL/6 mice. The proteins with or without 13 μmol/kg HAV6 or ADTC5 were administered via tail vein injection. For lysozyme, the delivered doses were 21.6 and 54 nmol/kg. For albumin, IgG mAb, and fibronectin, the dose used was 21.6 nmol/kg. Fifteen minutes after IgG mAb administration with or without a peptide of the present technology, the animals were sacrificed and PBS with 0.5% Tween-20 was administered for cardiac perfusion to remove the remaining protein in the BBB microvessels. The brain and other organs such as lung, heart, spleen, liver and kidney were harvested and rinsed with PBS. Protein depositions in the brain and other organs were quantified by NIRF imaging using an Odyssey CLx NIRF scanner.\n(§2) A second quantification method was done using brain homogenates. In this case, the brains were homogenized in 2.0 mL PBS by mechanical disruption and 200 μL of homogenized brain (n=8) was aliquoted to a 96-well plate followed by quantification using the Odyssey CLx scanner. The signal intensity was compared to calibration curve and normalized to brain weight and homogenate volume.\n(§3) Brain Perfusion. After euthanasia using CO2 chamber, mice were immediately subjected to cervical dislocation followed by removal of IRdye800CW-labeled protein from the brain capillaries using perfusion solution. In this case, a solution containing PBS with 0.2% Tween-20 was transcardially perfused to remove the remaining protein molecules in the brain endothelial microvessels. After perfusion, the brain was removed from the skull and subjected to capillary depletion."}, "[2]": {"test_system": "blood-brain barrier (BBB)", "experiment": "Brain delivery of IRdye800CW-IgG mAb in SJL/elite mice, whole brain NIRF imaging", "type": "in vivo", "conditions": "IgG mAb 26.8 nmol/kg i.v. alone (n=4) or with ADTC5 13 μmol/kg (n=5), 15 min", "procedure": "Brain Delivery IRdye800CW-labeled IgG mAb using ADTC5 in SJL/elite Mice. For initial evaluation of whether ADTC5 can deliver proteins into the brain, IRdye800CW donkey-anti-goat IgG mAb was administered via i.v. with and without ADTC5 peptide in 5-8-week-old SJL/elite mice. Two groups of healthy SJL/elite mice were injected with (a) a mixture of IgG mAb (26.8 nmol/kg) and ADTC5 peptide (13 μmol/kg) (n=5) and (b) IgG mAb alone (26.8 nmol/kg) (n=4). After 15 min in the systemic circulation, the mice were euthanized using CO2 inhalation followed by brain perfusion using PBS to remove the remaining protein in the BBB microvasculature. Next, the brains were isolated followed by NIRF imaging using Licor Odyssey CLx (Licor, Lincoln, Nebr.). Eight optical sections were taken at 0.5 mm increments beginning from the bottom surface of the brain to a depth of 4 mm. The optical sections were summed to yield a fluorescence intensity value per each brain."}, "[3]": {"test_system": "blood-brain barrier (BBB)", "experiment": "In vivo brain delivery of IRdye800CW-albumin (65 kDa)", "conditions": "IRdye800CW-albumin 21.6 nmol/kg i.v. alone or with 13 μmol/kg peptide; C57BL/6 mice", "procedure": "as §1, §2, §3"}, "[4]": {"test_system": "blood-brain barrier (BBB)", "experiment": "In vivo brain delivery of IRdye800CW-IgG mAb, NIRF quantification in brain homogenates", "conditions": "C57BL/6 mice", "procedure": "The activity of each peptide in enhancing blood-brain barrier (BBB) penetration was evaluated by delivering IRdye800CW donkey anti-goat IgG mAb in C57BL/6 mice; the amounts of mAb in the brain were determined using NIRF imaging. Each group contained 3 mice per group (n=3) with a mixture of male and female mice, selected randomly for each arm of the study. The injection solution was prepared by adding 600 μL PBS into 0.5 mg lyophilized IgG mAb; then, approximately 1.5 mg lyophilized peptide was added into the mixture yielding the injectable formulation. A 100 μL solution of a mixture containing IgG mAb (21.6 nmol/kg) along with 13 μmol/kg peptide of the present technology was administered via tail vein. As a control, 100 μL of IgG mAb alone was administered via i.v. route. After the delivered molecules had been circulating for 15 min, the mice were sacrificed; then, a mixture of PBS with 0.5% Tween20 was administered for cardiac perfusion to remove the blood and […] molecules into the brain microvessels. The brain and other organs such as lung, heart, spleen, liver, and kidney were harvested and rinsed with PBS. The isolated organs were scanned with Odyssey® CLx for mAb quantification.\nThe brain deposition of IgG mAb was also quantified by NIRF imaging in brain homogenates. The isolated brains were mechanically homogenized in 2.0 mL of PBS. To make the standard solutions, IRDye800CW IgG mAb stock solution (70 μg/mL) was prepared; it was then diluted with various amounts of PBS to make six different mAb concentrations. To generate a calibration curve, the brain homogenate (200 μL) was aliquoted out to a 96-well plate. 10 μL of each concentration of IgG mAb was added to three different wells of blank brain homogenates. The standard spiked homogenates were at a range of 10-200 ng/mL IgG mAb in brain homogenate. The wells were scanned using the Odyssey® CLx scanner, and the signal intensities vs. concentrations of mAb per gram of brain were used to generate a calibration curve.\nas §1, §2"}, "[5]": {"test_system": "SJL/elite EAE mice", "experiment": "Suppression of EAE relapse, clinical scores", "type": "in vivo", "conditions": "BDNF 5.71 nmol/kg and/or ADTC5 10 μmol/kg i.v.", "procedure": "EAE Mouse Model: EAE disease in animals (5-8-week-old SJL/elite female mice, Charles River) was stimulated by injecting 200 μg of PLP139-151 peptide in a 0.2 mL emulsion containing equal volumes of PBS and complete Freund's adjuvant (CFA) with killed mycobacterium tuberculosis strain H37RA (Difco, Detroit, Mich.; final concentration 4 mg/mL) as described in Kobayashi, N.; Kiptoo, P.; Kobayashi, H.; Ridwan, R.; Brocke, S.; Siahaan, T. J. Prophylactic and therapeutic suppression of experimental autoimmune encephalomyelitis by a novel bifunctional peptide inhibitor. Clin Immunol 2008, 129, (1), 69-79 and Kobayashi, N.; Kobayashi, H.; Gu, L.; Malefyt, T.; Siahaan, T. J. Antigen-specific suppression of experimental autoimmune encephalomyelitis by a novel bifunctional peptide inhibitor. J Pharmacol Exp Ther 2007, 322, (2), 879-86. Briefly, […] of PLP/CFA emulsion was administered to four different regions above the shoulders and the flanks on Day 0 followed by intraperitoneal injection of 200 ng of pertussis toxin (List Biological Laboratories, Campbell, Calif.) on Days 0 and 2. Clinical scores that reflect the disease progression were determined using an 11-point scale with 0.5 increments ranging from 0 to 5; 0 being no apparent disease and 5 being moribund. On Day 21, mice were randomly separated into […]: (i) BDNF (5.7 nmol/kg)+ADTC5 (10 μmol/kg; n=7), (ii) BDNF alone (5.71 nmol/kg, n=6), (iii) ADTC5 alone (10 μmol/kg; n=5), and (iv) vehicle (n=5). All mice received 8 intravenous injections every 4 days beginning on Day 21. The mice were euthanized via CO2 inhalation on Day 55. Area under the curve (AUC) calculations were used to compare clinical scores across groups; AUC calculations were performed using the trapezoid rule from Days 21 to 55."}, "[6]": {"test_system": "blood-brain barrier (BBB)", "experiment": "In vivo brain delivery of IRdye800CW-lysozyme (15 kDa)", "parameters": "species or system C57BL/6 mice", "procedure": "Preparation of Stock and Standard Curves. The stock solution for IRDye800CW protein (i.e., lysozyme, 70 μg/mL) was prepared and stored at −80° C. The stock solution was later diluted with PBS to make the required standard solutions. To produce a standard calibration curve, 200 μL of blank brain homogenates was spiked with 10 μL standard solutions of various concentrations to yield a linear range from 0.5 to 50 ng/mL. The same method was employed for the sample's quality control (QC).\nas §1, §2, §3"}, "[7]": {"conditions": "IgG mAb 21.6 nmol/kg + 13 μmol/kg peptide i.v."}}, "note": "“Also recorded” adds a separate entry of the source. Positions of bridges follow the written chain, without caps; N, C: chain ends. Non-standard residues stand in square brackets, D forms with d. Residues, ends and D or L forms follow the SMILES beside them. ξ: configuration not given here. Thr(3ξ) = CC(O)[C@H](N)C(=O)O"}
{"smiles": "CC(=O)N[C@H]1CSSC[C@@H](C(N)=O)NC(=O)[C@H](C(C)C)NC(=O)[C@@H]2CCCN2C(=O)[C@@H]2CCCN2C(=O)[C@H](C(C)O)NC(=O)[C@H](CC(=O)O)NC1=O", "note": "(some centres unmarked) [ADTC5, cyclo(1,7)acetyl-CDTPPVC-NH2] (Ac-CD[Thr(3ξ)]PPVC-NH2; disulfide 1-7)", "values": [{"measurement": "NIRF signal of fibronectin in brain homogenates", "setting": "[1]; IRdye800CW-fibronectin 21.6 nmol/kg i.v. alone or with ADTC5 13 μmol/kg", "value": "35.498±3.001 ×10^3 A.U."}, {"measurement": "brain delivery of 220 kDa fibronectin", "setting": "[1]; fibronectin 21.6 nmol/kg with ADTC5 13 μmol/kg vs fibronectin alone", "value": "did not enhance"}, {"measurement": "whole brain NIRF signal of IRDye800CW-IgG mAb", "setting": "[2]", "value": "significantly higher signal intensity"}, {"measurement": "amount of albumin in the brain", "setting": "[3]", "value": "40.7±7.4", "unit": "pmol/g brain"}, {"measurement": "average amount of IgG mAb in the brain", "setting": "[4]; IRdye800CW-IgG mAb 21.6 nmol/kg i.v. alone or with 13 μmol/kg peptide, 15 min circulation, n=3", "value": "13.3±0.7", "unit": "pmol/g brain"}, {"measurement": "brain delivery of IgG mAb compared to control (IgG mAb alone)", "setting": "[4]; [7]", "value": "significantly better than in the PBS control; also recorded: significant difference"}, {"measurement": "enhancement of mAb brain deposition relative to control", "setting": "[4]; [7]", "value": "about three times that of control"}, {"measurement": "locomotion / paralysis observed", "setting": "[5]; 8 injections", "value": "partial or full hind leg paralysis and full tail paralysis"}, {"measurement": "EAE clinical body scores", "setting": "[5]; 8 injections every 4 days from day 21, compared with other groups/vehicle", "value": "no significant difference"}, {"measurement": "amount of lysozyme in the brain", "setting": "[6]; IRdye800CW-lysozyme 54 nmol/kg i.v. alone or with 13 μmol/kg peptide, C57BL/6 mice", "value": "37.8±7.1", "unit": "pmol/g brain"}, {"measurement": "brain delivery of lysozyme compared to lysozyme alone", "setting": "[6]; lysozyme 21.6 nmol/kg with 13 μmol/kg peptide", "value": "no significant improvement"}]}
